{
  "source": "paper PMC10537354",
  "about": "“Pyrenebutyrate Enhances the Antibacterial Effect of Peptide-Coupled Antisense Peptide Nucleic Acids in Streptococcus pyogenes” (Microorganisms, 2023)",
  "key": {"[1]": {"tested_on": "S. pyogenes serotype M49 strain 591", "assay": "Bacterial killing assay, S. pyogenes", "format": "cell-based, Streptococcus pyogenes", "details": "6 h; for log CFU reduction: S. pyogenes M49 591, 5 µM CPP–PNA, n = 5", "procedure": "(§1) S. pneumoniae serotype 4 strain TIGR4: after culturing, S. pneumoniae serotype 4 strain TIGR4 was diluted to approximately 10^5 CFU/mL in phosphate-buffered saline (PBS)/THY (95%/5%). S. pyogenes serotype M49 strain 591: An overnight culture of S. pyogenes serotype M49 strain 591 was diluted to approximately 10^5 CFU/mL in PBS/BHI (70%/30%). An amount of 400 µL of the respective bacterial suspension was transferred to a 2 mL polypropylene reaction tube. 4-(1-pyrenyl)-butyric acid (Merck, Darmstadt, Germany) was dissolved to 1 M in DMSO. The solution was stored in the dark and further dilution steps were performed in PBS and 3% DMSO. An amount of 50 µL PyB in PBS/DMSO was added to the bacterial suspension at a final concentration of 50–400 µM and pre-incubated for 10 min at 37 °C and 7 rpm (Rotor SB3, Stuart, Staffordshire, UK). An amount of 50 µL PBS served as a mock control. Following pre-incubation, 50 µL of CPP–PNA solution was added to a final concentration of 5–10 µM or as indicated. An amount of 50 µL molecular grade H2O served as a mock control. The reaction tubes were incubated for another 6 h at 37 °C and 7 rpm. Killing kinetics were observed over 12 h. Samples were collected at time points of 2–12 h following addition of CPP–PNAs, and bacteria were plated on BHI solid medium following serial dilution. Agar plates were incubated for 24 h at 37 °C under a 5% CO2 atmosphere and CFUs were counted. The bacterial count at the beginning of the experiment was 1–3 × 10^5 CFU/mL. Each experiment was conducted at least three times in independent biological replicates."}, "[2]": {"tested_on": "S. pneumoniae serotype 4 strain TIGR4", "assay": "Bacterial killing assay, S. pneumoniae", "format": "cell-based, Streptococcus pneumoniae", "details": "for Significance of the effect of PyB pre-treatment on antimicrobial efficacy (CFU reduction): S. pneumoniae TIGR4, 10 µM CPP–PNA, 200 µM PyB 10 min pre-treatment vs none, one-way ANOVA; for Change of antibacterial activity in the presence of PyB (non-significant trend): S. pneumoniae TIGR4, 200 µM PyB pre-treatment, related to proportion of positively charged residues of the CPP; for log CFU reduction: S. pneumoniae TIGR4, CPP-anti-gyrA PNA (10 µM in this experiment), without PyB", "procedure": "as §1, with “The bacterial count at the beginning of the experiment was 1–3 × 10^5 CFU/mL.” left out"}, "[3]": {"tested_on": "S. pyogenes serotype M49 strain 591", "assay": "In vitro time killing assay (killing kinetics over 12 h)", "format": "cell-based, Streptococcus pyogenes", "details": "n = 3", "procedure": "as §1\nTherefore, the kinetics of the antimicrobial activity of K8-conjugated anti-gyrA PNA in the presence of PyB were studied in an in vitro time killing assay in S. pyogenes. Bacteria were treated with 2.5 or 5 μM CPP-antisense PNAs or scrambled control PNAs (Figure 3) with or without pre-treatment with 100 µM PyB. Samples were collected at 2, 4, 6, and 12 h following antisense treatment. CFUs per milliliter were determined by plating of serial dilutions and plotted over time. Untreated bacteria grew by 1–1.5 log CFU over the course of the experiment. […] Following treatment with 2.5 µM K8-conjugated scPNA, no reduction in bacterial counts was observed throughout the experiment. Upon treatment with 5 µM K8-conjugated scPNA, growth was reduced by 0.6 log CFU in comparison to the untreated control, indicating an inhibitory effect of the CPP under these conditions. Overall, pre-treatment with PyB enhanced the activity of K8-anti-gyrA PNA and allowed the eradication of S. pyogenes in vitro."}},
  "data": [
    {"molecule": "O=C(O)CCCc1ccc2ccc3cccc4ccc1c2c34", "note": "[PyB, 4-(1-pyrenyl)-butyric acid, reference compound]", "values": [
      {"measurement": "Toxicity of PyB (CFU/mL compared to untreated control)", "setting": "[1]; S. pyogenes 591, 5 × 10^5 CFU/mL, PyB alone 50–200 µM, stated up to 200 µM, n = 4", "value": "No significant toxicity"},
      {"measurement": "Viable counts after treatment with PyB", "setting": "[1]; S. pyogenes, 200 µM PyB alone, n = 4", "value": "decreased slightly"},
      {"measurement": "Toxicity of PyB (CFU/mL compared to untreated control)", "setting": "[2]; S. pneumoniae TIGR4, 8 × 10^5 CFU/mL, PyB alone 50–400 µM, 6 h, stated up to 400 µM, n = 4", "value": "unaffected"}
    ]},
    {"molecule": "KKKKKKKK-eg-attagactgt [K8-anti-gyrA scPNA, Oligolysin (K8) coupled to scrambled control PNA attagactgt, S. pyogenes]", "values": [
      {"measurement": "Reduction in bacterial counts throughout the experiment", "setting": "[3]; 2.5 µM scrambled control, 12 h", "value": "no reduction"},
      {"measurement": "Growth reduction in comparison to the untreated control", "setting": "[3]; 5 µM scrambled control, 12 h course", "value": 0.6, "unit": "log CFU"}
    ]},
    {"molecule": "KKKKKKKK-eg-tgcatttaag [K8-anti-gyrA PNA, Oligolysin (K8) coupled to anti-gyrA PNA tgcatttaag, S. pyogenes]", "values": [
      {"measurement": "Time until clearance of S. pyogenes CFUs", "setting": "[3]; 5 µM, after pre-treatment with 100 µM PyB", "value": 12, "unit": "h"},
      {"measurement": "Eradication of S. pyogenes during the course of the assay", "setting": "[3]; 2.5 or 5 µM, without PyB, 12 h", "value": "not eradicated"},
      {"measurement": "Viable bacteria over time", "setting": "[3]; 2.5 or 5 µM, without PyB, samples at 2, 4, 6, 12 h", "value": "constant decrease"},
      {"measurement": "log CFU reduction", "setting": "[1]; after pre-treatment with 100 µM PyB for 10 min", "value": 4.8, "unit": "log CFU"},
      {"measurement": "log CFU reduction", "setting": "[1]; without PyB pre-treatment, PBS/BHI (70%/30%)", "value": 3.7, "unit": "log CFU"}
    ]},
    {"molecule": "RQIRIWFQNRRMRWRR-eg-tgcattaata [PenArg-anti-gyrA PNA, PenArg coupled to anti-gyrA PNA tgcattaata, S. pneumoniae]", "values": [
      {"measurement": "Significance of the effect of PyB pre-treatment on antimicrobial efficacy (CFU reduction)", "setting": "[2]; 6 h", "value": "no significant effect"},
      {"measurement": "Change of antibacterial activity in the presence of PyB (non-significant trend)", "setting": "[2]", "value": "not enhanced"},
      {"measurement": "log CFU reduction", "setting": "[2]; 6 h", "value": 3.3, "unit": "log CFU"}
    ]},
    {"molecule": "RRRRRRRRR-eg-tgcattaata [R9-anti-gyrA PNA, R9 coupled to anti-gyrA PNA tgcattaata, S. pneumoniae]", "values": [
      {"measurement": "Significance of the effect of PyB pre-treatment on antimicrobial efficacy (CFU reduction)", "setting": "[2]; 6 h", "value": "no significant effect"},
      {"measurement": "Change of antibacterial activity in the presence of PyB (non-significant trend)", "setting": "[2]", "value": "slightly increased"},
      {"measurement": "log CFU reduction", "setting": "[2]; 6 h", "value": 4, "unit": "log CFU"}
    ]},
    {"molecule": "RXRRXRRXRRXRXB-eg ^1 -tgcatttaag [(RXR)4XB-anti-gyrA PNA, (RXR)4XB coupled via eg linker to anti-gyrA PNA tgcatttaag, S. pyogenes]", "values": [
      {"measurement": "Significance of the effect of PyB pre-treatment on antimicrobial efficacy (CFU reduction)", "setting": "[2]; 6 h", "value": "did not significantly enhance"},
      {"measurement": "Change of antibacterial activity in the presence of PyB (non-significant trend)", "setting": "[2]", "value": "not enhanced"}
    ]}
  ]
}
